Molecules are shown by their SMILES. Converted amounts (≈) assume the structure as drawn.

In general, kinetic solubility refers to solubility judged after dilution from a stock solution rather than from solid.

The conditions of this data set: buffer; pH 7.4; 200.0 µM.
In turn, `Cc1ccc(NS(=O)(=O)c2ccc(NC(=O)c3ccccc3C(=O)O)cc2)cc1C` had a kinetic solubility above 63.7 µg/mL.

Consider `Cc1nc2ccc(NS(=O)(=O)c3ccc(F)c(C)c3)cc2[nH]1`, for which the solubility (kinetic) was above 47.9 µg/mL.

As to `CCCCOc1ccc(-c2ncc(N)cn2)cc1`, the solubility (kinetic) was 24.2 µg/mL (≈ 99.5 µM).

For the compound `C=CCn1cc(/C=C2/NC(=O)NC2=O)c2ccccc21`, the kinetic solubility is 1 µg/mL (≈ 3.74 µM). Take `CC1CC(C)CN(C(=O)C(Cc2ccccc2)n2cccc2)C1` (stereo not drawn): the solubility (kinetic) amounted to 4.4 µg/mL (≈ 14.2 µM). For the compound `CCCCN1C(=O)NC(NC(=O)C2CC2)(C(F)(F)F)C1=O` (stereo not drawn), the kinetic solubility was above 46.1 µg/mL. Compound `CN(C(=O)COC(=O)c1ccc(C#N)cc1)c1ccccc1` showed a solubility (kinetic) of 19.4 µg/mL (≈ 65.9 µM). In the case of `N/C(=N\OC(=O)C1CC1)c1ccc([N+](=O)[O-])s1` it was 26.4 µg/mL (≈ 103 µM); in that of `COc1ccc(OC(=O)NCCc2ccccc2)cc1`, 24.3 µg/mL (≈ 89.6 µM); in that of `CC(C)(C)CC(=O)Nc1cc2c3c(c1)CCN3C(=O)CC2`, above 43 µg/mL.

`CCC(C)NC(=O)c1ccc2nc(Cc3ccc(OC)cc3)oc2c1` (stereo not drawn) registered a kinetic solubility of 4.7 µg/mL (≈ 13.9 µM).

As to `CCN(CC)S(=O)(=O)c1ccc(OC)c(N)c1`, the solubility (kinetic) is 35.1 µg/mL (≈ 136 µM).

As to `O=C1Nc2ccccc2C1C(C[N+](=O)[O-])c1ccccn1` (stereo not drawn), the solubility (kinetic) was above 42.5 µg/mL. In turn, `COc1cc2c(cc1OC)/C(=C/C(=O)c1ccc(F)cc1)NCC2` yielded a solubility (kinetic) of 25.7 µg/mL (≈ 78.5 µM). The result for `COC(=O)c1ccc(COC(=O)C2CCN(S(=O)(=O)c3ccccc3C(=O)OC)CC2)cc1` reads 11 µg/mL (≈ 23.1 µM).

Compound `O=[N+]([O-])c1cccc(OCc2cn3cccnc3n2)c1` displayed a kinetic solubility above 40.5 µg/mL.

In turn, `CC1CCCCN1C(=S)NC(=O)c1ccco1` (stereo not drawn) returned a kinetic solubility above 37.8 µg/mL. `Cc1ccccc1CC(=O)N1CCN(S(=O)(=O)c2ccc(Cl)s2)CC1` came in with a solubility (kinetic) of 5.6 µg/mL (≈ 14 µM). In the case of `CC(=O)N1CCN(Cc2ccc(Cl)nc2)CC1` it was above 38.1 µg/mL; in that of `O=Cc1c[nH]c2ccc(OCc3ccccc3)cc12`, below 0.5 µg/mL; in that of `COc1ccc(S(=O)(=O)N2CCC(C(=O)NC3CC3)CC2)cc1`, above 50.8 µg/mL.

Take `Cc1ccc(C(=O)OCC(=O)NC2CCCCCC2)c(C)c1`: the kinetic solubility turned out to be 4.6 µg/mL (≈ 15.2 µM). Compound `O=C(O)c1ccccc1Nc1cc(Cl)c2nonc2c1[N+](=O)[O-]` showed a kinetic solubility of 43.3 µg/mL (≈ 129 µM).

For the compound `CCc1onc(C)c1C(=O)O`, the kinetic solubility is above 23.3 µg/mL.

In turn, `O=C(Nc1ccccc1C(F)(F)F)N1CCCC1c1cccnc1` (stereo not drawn) had a solubility (kinetic) above 50.3 µg/mL. In the case of `C/C(=C/c1ccccc1)C(=O)N1CCN(c2ccccc2)CC1` it was 37.1 µg/mL (≈ 121 µM); in that of `COc1ccc(S(=O)(=O)Nc2cccnc2)c(Cl)c1Cl`, 21.5 µg/mL (≈ 64.5 µM); in that of `O=C(CNC(=O)c1ccccc1)NCCc1ccc(O)c(O)c1`, above 47.2 µg/mL. The compound `NC(=O)C12CCCC(Br)(CCC1)C2` gave a kinetic solubility of 36.2 µg/mL (≈ 147 µM). Compound `CC1(C)CC(=O)C2=C(C1)NC(=S)C(C#N)C21CCCCC1` (stereo not drawn) yielded a solubility (kinetic) above 45.4 µg/mL. Compound `CCN(Cc1ccccc1)Cc1nc(CCc2ccccc2)no1` displayed a kinetic solubility of 1.4 µg/mL (≈ 4.36 µM). In the case of `O=C(CN1C(=O)NC2(CCCCCC2)C1=O)NC1CC1` it was above 41.9 µg/mL. The result for `O=C(NCCCCc1ccccc1)Nc1ccc(F)cc1` reads 2.3 µg/mL (≈ 8.03 µM); that for `Cl.O=C(CN1CCCCC1)c1ccc(F)cc1`, above 38.7 µg/mL; that for `Cc1nc(NC(=O)c2cncc(Br)c2)ccc1Br`, 2.1 µg/mL (≈ 5.66 µM). The result for `Cc1cc(C)cc(NC(=O)C2CCN(C(=O)c3cccs3)CC2)c1` reads above 51.4 µg/mL; that for `CC1(C)CC(NCc2ccccc2)CCO1.Cl` (stereo not drawn), 34.2 µg/mL. The compound `Cc1ccc(CNC(=O)COC(=O)c2cnc(C)cn2)cc1` gave a solubility (kinetic) above 44.9 µg/mL. The result for `O=C1CC(N(O)c2ccccc2)C(=O)N1c1ccc(Cl)c(Cl)c1` (stereo not drawn) reads 9.8 µg/mL (≈ 27.9 µM); that for `CCN(CC)CC(=O)Nc1scc2c1c(=O)oc1ccccc12`, below 0.4 µg/mL. The result for `Cc1cc(C)n2nc(C(=O)OCC(=O)Nc3ccc(C)c(S(=O)(=O)N4CCOCC4)c3)nc2n1` reads above 73.3 µg/mL; that for `N/C(=N\OC(=O)C12CC3CC(CC(C3)C1)C2)c1ccncc1`, 17 µg/mL (≈ 56.8 µM); that for `COc1ccc(Nc2nc(NCC3CCCO3)nc(N)c2[N+](=O)[O-])cc1` (stereo not drawn), 1.7 µg/mL (≈ 4.72 µM). The result for `O=C1CN(C(=O)COc2ccccc2)c2ccccc2N1` reads above 42.3 µg/mL. For the compound `Cc1cccc2c1NC1(CCCC1)CC2C.Cl` (stereo not drawn), the kinetic solubility is below 0.5 µg/mL. As for `CN(C)C(=O)N1CCNCC1.Cl`, the solubility (kinetic) is above 29.1 µg/mL.

Compound `O=C(c1ccc(Cl)cc1Cl)N1CCSCC1` showed a kinetic solubility above 41.4 µg/mL.

For the compound `Cc1cc(C)c(S(=O)(=O)Nc2ccncc2)cc1C`, the solubility (kinetic) was 19.2 µg/mL (≈ 69.5 µM). `O=C(NCCNC(=O)c1cc(Cl)ccc1Cl)c1ccccn1` returned a kinetic solubility above 50.7 µg/mL. The result for `COc1ccc(C(=O)C2CCCN(S(=O)(=O)C(C)C)C2)c(C)c1` (stereo not drawn) reads 45.4 µg/mL (≈ 134 µM). Turning to `COc1ccc(Nc2nc(C)cc(C)n2)cc1Cl.Cl`, the kinetic solubility was above 45 µg/mL. The result for `CN1CCN(C(=O)c2cc3ccccc3cc2O)CC1` reads above 40.5 µg/mL; that for `CCOC(=O)C(=CNc1cc(C)ccc1-n1cccc1)C(=O)OCC`, 0.7 µg/mL (≈ 2.04 µM); that for `COc1cc(OC)cc(C(=O)NC2CCCCCCC2)c1`, 8.6 µg/mL (≈ 29.5 µM).

`CC(NCCC1(C(C)C)CCOC(C)(C)C1)c1cccs1` (stereo not drawn) displayed a kinetic solubility above 46.4 µg/mL. In the case of `O=C(COC(=O)c1cccnc1Cl)Nc1ccc(S(=O)(=O)N2CCOCC2)cc1` it was 57.5 µg/mL (≈ 131 µM). Compound `COc1ccc(S(=O)(=O)N2CCN(CC(=O)N3CCOCC3)CC2)cc1OC` had a kinetic solubility above 62 µg/mL. In the case of `COc1cc(C(=O)Nc2nc3ccccc3[nH]2)ccc1OC(F)F` it was 1 µg/mL (≈ 3 µM).

As to `COC(=O)C1Cc2c([nH]c3ccccc23)C(C(C)C)N1` (stereo not drawn), the kinetic solubility turned out to be 33.4 µg/mL (≈ 123 µM). In the case of `CC(=O)C1=C(O)C(=O)N(Cc2ccccc2)C1c1cccc([N+](=O)[O-])c1` (stereo not drawn) it was above 52.9 µg/mL; in that of `NC(=O)C1CCCNC1` (stereo not drawn), above 19.2 µg/mL.

Regarding `O=C(NCCc1ccc(Cl)cc1)c1cc(=O)[nH]c2ccccc12`, the solubility (kinetic) was found to be 2.4 µg/mL (≈ 7.34 µM). In the case of `CCCCNc1ccc2c3c(cccc13)C(=O)N(CCCC)C2=O` it was 2.1 µg/mL (≈ 6.47 µM). In the case of `COc1ccccc1-n1cc(-c2ccc([N+](=O)[O-])cc2)[nH]c1=S` it was 0.3 µg/mL (≈ 0.916 µM); in that of `COc1ccc(CCNC(=O)CCCc2ccccc2)cc1`, 35.6 µg/mL (≈ 120 µM).

`CC(=O)NC(CC(=O)N1CCN(C(C)=O)CC1)c1ccccc1` (stereo not drawn) had a kinetic solubility above 47.6 µg/mL. Turning to `COc1cc(/C=C/C(=O)OCC(=O)NCc2ccc(F)cc2)ccc1O`, the solubility (kinetic) was above 53.9 µg/mL.

Turning to `Cc1csc(NC(=O)c2cc(C)on2)n1`, the kinetic solubility was above 33.5 µg/mL.

The compound `CCOC(=O)c1cc(/C(C)=N/OC(=O)c2ccc(Cl)cc2)on1` registered a solubility (kinetic) of 0.6 µg/mL (≈ 1.78 µM).

Turning to `Cc1ccc(C(=O)NC2CCc3ccccc3C2=O)cc1` (stereo not drawn), the kinetic solubility worked out at 5.8 µg/mL (≈ 20.8 µM). In turn, `COc1ccc(Cl)cc1NC(=O)CN(C)C(=O)C1CC1` displayed a solubility (kinetic) above 44.5 µg/mL.

`COc1ccc(N2C(=O)CS/C2=N\C(=S)Nc2ccccc2)cc1` registered a solubility (kinetic) of 1.4 µg/mL (≈ 3.92 µM). On to `CC1CN(C(=O)COC(=O)c2ccc(Cl)c(N)c2)CC(C)O1` (stereo not drawn), for which the solubility (kinetic) is above 49 µg/mL.

Regarding `O=c1ccc2cc3c([nH]c4ccc(Br)cc43)oc-2c1O`, the kinetic solubility is above 49.5 µg/mL. In turn, `Nc1nc(C23CC4CC(CC(C4)C2)C3)[nH]c(=O)n1` returned a kinetic solubility above 36.9 µg/mL.

`NS(=O)(=O)c1ccc(CNc2ccc3ccccc3n2)cc1` gave a solubility (kinetic) of 12.8 µg/mL (≈ 40.8 µM).

For `CCCC/C(O)=C1\C(=O)CC(C)(C)CC1=NCCCCCC(=O)O`, the kinetic solubility is above 50.6 µg/mL. On to `O=C1CSC(c2cccc(O)c2)N1Cc1ccccc1` (stereo not drawn), for which the solubility (kinetic) is above 42.8 µg/mL. The result for `CC1CC(C)CN(C(=O)COC(=O)c2ccc3c(c2)OCCO3)C1` (stereo not drawn) reads 49.5 µg/mL (≈ 148 µM). In the case of `CC1CN(S(=O)(=O)c2cccc(C(=O)N3CCC(C(N)=O)CC3)c2)CC(C)O1` (stereo not drawn) it was above 61.4 µg/mL. The result for `COc1ccccc1CNS(=O)(=O)c1ccc(Cl)s1` reads above 47.7 µg/mL; that for `O=C(Nc1ccc(S(=O)(=O)N2CCOCC2)cc1)c1ccccc1`, above 52 µg/mL.

Compound `CC(=O)c1cccc(NC(=O)C2COc3ccccc3O2)c1` (stereo not drawn) registered a kinetic solubility of 44.1 µg/mL (≈ 148 µM). With `COc1ccc(NC(=O)C(CC(=O)O)C(C)c2ccccc2)cc1` (stereo not drawn), the solubility (kinetic) is above 49.1 µg/mL. For `Cc1cccc(NC(=O)NCc2ccc3c(c2)OCO3)c1`, the solubility (kinetic) is 1.6 µg/mL (≈ 5.63 µM). `COc1ccc(C(=O)NC(=S)N2CCOCC2)cc1OC` returned a kinetic solubility above 46.6 µg/mL. In the case of `FC(F)(F)c1cc(N2CCNCC2)c2ccccc2n1` it was 41.6 µg/mL (≈ 148 µM); in that of `O=C(NCC1CCCO1)c1ccccc1NS(=O)(=O)c1cccc([N+](=O)[O-])c1` (stereo not drawn), above 60.8 µg/mL. The result for `COc1cc(C(=O)OCC(C)=O)c([N+](=O)[O-])cc1OC` reads above 42.5 µg/mL; that for `O=C(CSc1cccc[n+]1[O-])Nc1ccc(Cl)cc1F`, 15.1 µg/mL (≈ 48.3 µM); that for `Cc1ccc2nc(-c3ccccc3C)oc(=O)c2c1`, below 0.5 µg/mL. In the case of `Cc1ccccc1N1CCN(Cc2nc(Cc3ccccc3)no2)CC1` it was 11 µg/mL (≈ 31.6 µM); in that of `O=C(COC(=O)[C@@H]1CC(O)CN1S(=O)(=O)c1ccc(Cl)c(Cl)c1)NC(=O)NCc1ccccc1` (stereo partly drawn), 66.7 µg/mL (≈ 126 µM); in that of `Cc1nc(C)c(Oc2ccc(Cl)cc2Cl)c(=O)[nH]1`, 6.9 µg/mL (≈ 24.2 µM).

`O=Cc1cn(-c2ccccc2)nc1-c1ccncc1` had a solubility (kinetic) above 37.4 µg/mL. `Cc1noc(C)c1CN1C(=O)c2cccc([N+](=O)[O-])c2C1=O` showed a kinetic solubility above 45.2 µg/mL. In the case of `C/C=C/C=C(/NC(=O)c1ccccc1)C(=O)Nc1ccccc1` it was 2.3 µg/mL (≈ 7.51 µM); in that of `Cc1[nH]c(=O)nc(SCc2cccc(Cl)c2)c1C#N`, 12.2 µg/mL (≈ 41.8 µM). The result for `COCCNC(=O)/C(C#N)=C/c1cccs1` reads above 35.4 µg/mL. In the case of `O=C(Nc1ncccc1O)c1ccc2c(c1)OCO2` it was above 38.7 µg/mL; in that of `Cc1cccc(N(C)S(=O)(=O)c2ccc3c(c2)NC(=O)CC(=O)N3)c1`, above 53.9 µg/mL; in that of `S=c1[nH]nc(Nc2ccccc2)s1`, above 31.4 µg/mL. In turn, `CC1CC(C)CN(C(=O)COc2cccnc2[N+](=O)[O-])C1` (stereo not drawn) showed a solubility (kinetic) above 44 µg/mL.

Values taken from PubChem BioAssay AID1996.
